Measurements published in patent US11266632B1, “Maslinic and oleanolic acids derivatives for treating SARS-CoV-2 infection” (priority 2021, dated 2022).
Where two headings read alike, the source gives them in different places.

Tests used:
[1] = tested on: SARS-CoV-2 "NRC-03-nhCoV" virus; test: Inhibitory concentration 50 (IC50) determination, virus-induced cytopathic effect in Vero-E6 cells, crystal violet; assay type: cell-based; details: for Selectivity Index (CC50/IC50): CC50 Vero E6 / IC50 NRC-03-nhCoV
[2] = tested on: MERS-CoV virus "NRCE-HKU270"; assay type: cell-based; details: Vero E6 cells
NRC-03-nhCoV = test: Mode of antiviral action, plaque infectivity reduction assay in Vero-E6 cells; assay type: cell-based, SARS-CoV-2
Experimental: To investigate whether the tested compound with high selectivity index and antiviral activity against NRC-03-nhCoV affect (a) viral adsorption, (b) viral replication or (c) viricidal effect, a plaque infectivity reduction assay was performed according to the following protocols:
The viral adsorption mechanism was assayed according to a protocol by Zhang et al. with modifications. Vero-E6 cells were cultivated in a 6-well plate (10^5 cells/mL) for 24 h at 37° C. Each tested drug was applied in 500 μL of medium without supplements and co-incubated with the cells for 2 h at 4° C. The non-absorbed drug in the applied inocula was removed by washing cells three times with 1×PBS. The NRC-03-nhCoV was diluted to a countable range “10-4” and co-incubated with the pretreated cells. About 1 h post-incubation, the inocula were removed and 3 mL of agarose overlay (1:1 mixture of warmed 2× plaque media and a stock solution of heated 2% agarose) were added. The plates were kept at room temperature to solidify and then incubated at 37° C. to allow the formation of viral plaques. […]
The impact of the tested drug on viral replication was determined as previously described. […] The analyzed compound was then applied in varying concentrations to infected cells for another 1 h contact time at 37° C. […]
The virucidal mechanism was analyzed. […]

[3] = Severe acute respiratory syndrome coronavirus 2, Vero C1008, 72 h, NRC-03-nhCoV in Vero E6, 72 h, reduction of CPE by 50%, read-out: IC50
[4] = Severe acute respiratory syndrome coronavirus 2, Vero C1008, 72 h

| SMILES | Selectivity Index (CC50/IC50) [1] | IC50 [1, 3] | also measured |
| --- | --- | --- | --- |
| CC1(C)CC[C@]2(C(=O)OCc3cn(-c4ccccc4)nn3)CC[C@]3(C)C(=CCC4[C@@]5(C)C[C@@H](O)[C@H](O)C(C)(C)C5CC[C@]43C)C2C1 (stereo partly drawn) [Compound 11, (1-Phenyl-1H-1,2,3-triazol-4-yl)methyl-(2α,3β)-2,3-dihydroxyolean-12-en-28-oate] | 1.62 | 135 µM | – |
| C#CCOC(=O)[C@]12CCC(C)(C)CC1C1=CCC3[C@@]4(C)C[C@@H](OCC#C)[C@H](OCC#C)C(C)(C)C4CC[C@@]3(C)[C@]1(C)CC2 (stereo partly drawn) [Compound 7, Propargyl-(2α,3β)-2,3-bis(propargyloxy)-olean-12-en-28-oate] | 0.9 | 108 µM | – |
| Cc1cccc(-n2nncc2COC(=O)[C@]23CCC(C)(C)CC2C2=CCC4[C@@]5(C)CC[C@H](O)C(C)(C)C5CC[C@@]4(C)[C@]2(C)CC3)c1 (stereo partly drawn) [Compound 8, (1-(3-mcthylphenyl)-1H-1,2,3-triazol-5-yl)methyl-(3β)-3-hydroxyolean-12-en-28-oate] | 0.98 | 174 µM | – |
| COc1ccc(-n2cc(COC(=O)[C@]34CCC(C)(C)CC3C3=CCC5[C@@]6(C)C[C@@H](OCc7cn(-c8ccc(OC)cc8)nn7)[C@H](OCc7cn(-c8ccc(OC)cc8)nn7)C(C)(C)C6CC[C@@]5(C)[C@]3(C)CC4)nn2)cc1 (stereo partly drawn) [Compound 14, (1-(4-Methoxyphenyl)-1H-1,2,3-triazol-4-yl)methyl-(2α,3β)-2,3-bis((1-(4-methoxyphenyl)-1H-l,2,3-triazol-4-yl)methoxy)-olean-12-en-28-oate] | 2.96 | 137 µM | – |
| COc1ccc(-c2cc(COC(=O)[C@]34CCC(C)(C)CC3C3=CCC5[C@@]6(C)C[C@@H](O)[C@H](O)C(C)(C)C6CC[C@@]5(C)[C@]3(C)CC4)on2)cc1 (stereo partly drawn) [Compound 16, (3-(4-methoxyphenyl)isoxazol-5-yl) methyl-(2α,3β)-2,3-dihydroxyolean-12-en-28-oate] | 1.48 | – | – |
| C#CCOC(=O)[C@]12CCC(C)(C)CC1C1=CCC3[C@@]4(C)C[C@@H](O)[C@H](OCC#C)C(C)(C)C4CC[C@@]3(C)[C@]1(C)CC2 (stereo partly drawn) [Compound 6, Propargyl-(3α)-3-(propargyloxy)-(2β)-2-hydroxy-olean-12-en-28-oate] | 1.55 | 135 µM | – |
| C#CCOC(=O)[C@]12CCC(C)(C)CC1C1=CCC3[C@@]4(C)C[C@@H](O)[C@H](O)C(C)(C)C4CC[C@@]3(C)[C@]1(C)CC2 (stereo partly drawn) [Compound 4, Propargyl-(2α,3β)-2,3-dihydroxyolean-12-en-28-oate] | 0.67 | – | IC50 [1, 4]: 236 µM |
| COc1ccc(-c2cc(COC(=O)[C@]34CCC(C)(C)CC3C3=CCC5[C@@]6(C)CC[C@H](O)C(C)(C)C6CC[C@@]5(C)[C@]3(C)CC4)on2)cc1 (stereo partly drawn) [Compound 15, (3-(4-methoxyphenyl)isoxazol-5-yl) methyl-(3β)-3-hydroxyolean-12-en-28-oate] | 0.79 | – | – |
| CC1(C)CC[C@]2(C(=O)OCc3cc(-c4ccc(Cl)cc4)no3)CC[C@]3(C)C(=CCC4[C@@]5(C)C[C@@H](O)[C@H](O)C(C)(C)C5CC[C@]43C)C2C1 (stereo partly drawn) [Compound 17, (3-(4-chlorophenyl)isoxazol-5-yl) methyl-(2α,3β)-2,3-dihydroxyolean-12-en-28-oate] | – | 4.12 µM | IC50 ([1]; NRC-03-nhCoV in Vero E6, 72 h, reduction of CPE by 50%, read-out: IC50): 4.12 to 99.9 µM; antiviral activity against NRCE-HKU270 [2]: promising antiviral activity against NRCE-HKU270 at micromolar concentrations; interference with viral adsorption and replication (NRC-03-nhCoV): efficiently impair viral replication and adsorption; virucidal effect (NRC-03-nhCoV): virucidal effect |
| Cc1cccc(-n2cc(COC(=O)[C@]34CCC(C)(C)CC3C3=CCC5[C@@]6(C)CC[C@H](O)C(C)(C)C6CC[C@@]5(C)[C@]3(C)CC4)nn2)c1 (stereo partly drawn) [Compound 10, (1-(3-methylphenyl)-1H-1,2,3-triazol-4-yl)methyl-(3β)-3-hydroxyolean-12-en-28-oate] | 3.68 | – | – |
| CC1(C)CC[C@]2(C(=O)O)CC[C@]3(C)C(=CC[C@@H]4[C@@]5(C)C[C@@H](O)[C@H](O)C(C)(C)[C@@H]5CC[C@]43C)[C@@H]2C1 [Compound 2, Maslinic acid] | 0.97 | – | IC50 [1, 4]: 99.9 µM |
| CC1(C)CC[C@]2(C(=O)OCc3cn(-c4ccc(Cl)cc4)nn3)CC[C@]3(C)C(=CCC4[C@@]5(C)C[C@@H](OCc6cn(-c7ccc(Cl)cc7)nn6)[C@H](O)C(C)(C)C5CC[C@]43C)C2C1 (stereo partly drawn) [Compound 12, (1-(4-Chlorophenyl)-1H-1,2,3-triazol-4-yl)methyl-(2α,3β)-2-((1-(4-chlorophenyl)-1H-1,2,3-triazol-4-yl)methoxy)-3-hydroxyolean-12-en-28-oate] | 4.42 | 116 µM | – |
| C#CCOC(=O)[C@]12CCC(C)(C)CC1C1=CCC3[C@@]4(C)C[C@@H](OCC#C)[C@H](O)C(C)(C)C4CC[C@@]3(C)[C@]1(C)CC2 (stereo partly drawn) [Compound 5, Propargyl-(2α)-2-(propargyloxy)-(3β)-3-hydroxy-olean-12-en-28-oate] | 1.06 | 85.2 µM | – |
| C#CCOC(=O)[C@]12CCC(C)(C)CC1C1=CCC3[C@@]4(C)CC[C@H](O)C(C)(C)C4CC[C@@]3(C)[C@]1(C)CC2 (stereo partly drawn) [Compound 3, Propargyl-(3β)-3-hydroxyolean-12-en-28-oate] | 2.32 | – | – |
| COc1ccc(-n2cc(COC(=O)[C@]34CCC(C)(C)CC3C3=CCC5[C@@]6(C)C[C@@H](O)[C@H](OCc7cn(-c8ccc(OC)cc8)nn7)C(C)(C)C6CC[C@@]5(C)[C@]3(C)CC4)nn2)cc1 (stereo partly drawn) [Compound 13, (1-(4-Methoxyphenyl)-1H-1,2,3-triazol-4-yl)methyl-(2α,3β)-2-hydroxy-3-((1-(4-methoxyphenyl)-1H-1,2,3-triazol-4-yl)methoxy)-olean-12-en-28-oate] | 2.24 | 159 µM | – |
| CC1(C)CC[C@]2(C(=O)O)CC[C@]3(C)C(=CC[C@@H]4[C@@]5(C)CC[C@H](O)C(C)(C)[C@@H]5CC[C@]43C)[C@@H]2C1 [Compound 1, Oleanic acid] | 0.39 | – | IC50 [1, 4]: 476 µM |
